One assay deals with NICD (Notch intracellular domain) CSL-bla reporter in HeLa cells. Description: Notch assay (CellSensor T-REx NICD CSL-bla HeLa beta-lactamase reporter; Method 1 / Method 2). The assay is classed as cell-based. The note with it: Homo sapiens, 10 μM compound, Method 1 (10× compound prepared in assay medium, added to plated cells), read-out: inhibiton (%) at 10 μM. The text has this: We used the CellSensor T-REx™ NICD CSL-bla HeLa cell line, which was engineered by lentiviral transduction of HeLa cells with a Notch response element driving beta-lactamase reporter gene expression (CSL-bla) along with DOX (doxycycline)-inducible NICD (Notch intracellular domain) constructs. Addition of DOX to these cells allows for regulated NICD transcription factor expression and subsequent beta-lactamase expression.
Specifically, the following protocol was used.
NOTCH ASSAY PROTOCOL (Method 2)
• 1. Add 40 nL/well of working concentration of 1000× compound to 384-well assay plate with Echo. • 2. Plate Cells: 35 μl/well of HeLa/T-REx™ NICD CSL-bla cells at 10^3 cells/well complete medium into 384-well plate. • 3. Add 5 μl 8× Doxycycline in Assay Medium to the treated wells, and 5 μl Assay Medium to the Untreated and cell free control wells. • 4. Incubate the assay plate in a humidified 37° C./5% CO2 incubator for 16-20 hours. • 5. Preparation of 6× LiveBLAzer™-FRET B/G Substrate (CCF4-AM) Mixture according to the manual and cell loading should be done in the absence of direct strong lighting. • 6. Remove assay plate from the humidified 37° C./5% CO2 incubator. Add 8 μl of 6× Substrate Mixture from Step 5 to each well. Cover the plate to protect it from light and evaporation. Incubate at room temperature for 4 hours. • 7. Reading an Assay Plate using the following filter selections:
• 8. Data analysis: Use the assay plate layout to identify the location of the Cell-free wells. These control wells are used for background subtraction. Determine the average emission from the Cell-free wells at both 460 nm (Average Blue Background) and 530 nm(Average Green Background). Subtract the Average Blue Background (data collected at 460 nm) from all of the blue emission data. Subtract the Average Green background (data collected at 530 nm) from all of the green emission data. Calculate the Blue/Green Emission Ratio for each well, by dividing the background-subtracted blue emission values by the background-subtracted green emission values.
Instead of Step 1 to Step 3, the following Step a to Step d can also be performed. The subsequent steps are the same as Method 2, after Step 4 (Method 1). • a. Plate Cells: 32 μL/well of HeLa/T-REx™ NICD CSL-bla cells at 10^3 cells/well complete medium into 384-well plate. • b. Prepare 10× compounds in assay medium. • c. Add 4 μL compounds or 1% DMSO in assay medium to the cells. • d. Add 4 μL 10×Doxycycline in Assay Medium to the treated wells, and 4 μL Assay Medium to the Untreated and cell free control wells.
The results are shown in Table 13 (Table 13-1 to Table 13-2).
Take `CCCC[C@H]1ON(C(=O)OCc2cccc3ccccc23)C2CN(Cc3ccccc3)C(=O)[C@H](Cc3ccc(O)cc3)N2C1=O` (stereo partly drawn) [Compound I-11, (3R,6S)-naphthalen-1-ylmethyl 8-benzyl-3-butyl-6-(4-hydroxybenzyl)-4,7-dioxohexahydropyrazino[2,1-c][1,2,4]oxadiazine-1(6H)-carboxylate]: the inhibition at 10 µM turned out to be 51.7%.
In the case of `CCCCCCOC(=O)N1O[C@@H](CCCC)C(=O)N2C1CN(Cc1ccccc1)C(=O)[C@@H]2Cc1ccc(O)cc1` (stereo partly drawn) [Compound I-4, (3S,6S)-hexyl 8-benzyl-3-butyl-6-(4-hydroxybenzyl)-4,7-dioxohexahydropyrazino[2,1-c][1,2,4]oxadiazine-1(6H)-carboxylate], the inhibition at 10 µM worked out at 57.1%.
Same read-out and setting: the figure for `CC(C)CCN1CC2N(C(=O)OCc3cccc4ccccc34)O[C@H](Cc3ccccc3)C(=O)N2[C@@H](Cc2ccc(O)cc2)C1=O` (stereo partly drawn) [Compound I-16, (3R,6S)-naphthalen-1-ylmethyl 3-benzyl-6-(4-hydroxybenzyl)-8-isopentyl-4,7-dioxohexahydropyrazino[2,1-c][1,2,4]oxadiazine-1(6H)-carboxylate] is 79.8%; for `CCCC[C@H]1ON(C(=O)OCc2cccc3ccccc23)C2CN(CC3CCCCC3)C(=O)[C@H](Cc3ccc(O)cc3)N2C1=O` (stereo partly drawn) [Compound I-10, (3R,6S)-naphthalen-1-ylmethyl 3-butyl-8-(cyclohexylmethyl)-6-(4-hydroxybenzyl)-4,7-dioxohexahydropyrazino[2,1-c][1,2,4]oxadiazine-1(6H)-carboxylate] it is 57.2%; for `CCCCCCOC(=O)N1O[C@@H](CC(C)C)C(=O)N2C1CN(Cc1ccccc1)C(=O)[C@@H]2Cc1ccc(O)cc1` (stereo partly drawn) [Compound I-5, (3S,6S)-hexyl 8-benzyl-6-(4-hydroxybenzyl)-3-isobutyl-4,7-dioxohexahydropyrazino[2,1-c][1,2,4]oxadiazine-1(6H)-carboxylate] it is 66.1%.
Still for that read-out and setting: then `CC(C)CCN1CC2N(C(=O)OCc3cccc4ccccc34)O[C@H](Cc3ccccc3)C(=O)N2[C@@H](C)C1=O` (stereo partly drawn) [Compound I-15, (3R,6S)-naphthalen-1-ylmethyl 3-benzyl-8-isopentyl-6-methyl-4,7-dioxohexahydropyrazino[2,1-c][1,2,4]oxadiazine-1(6H)-carboxylate], with 52.6%.

The same assay, now with this note: Homo sapiens, 10 μM compound, Method 2 (40 nL of 1000× compound added to plate with Echo), read-out: inhibiton (%) at 10 μM.
Turning to `CCCC[C@@H](C(=O)NCCCc1ccccc1)N1CC2N(C(=O)OCCc3ccccc3)O[C@H](CC(C)C)C(=O)N2[C@@H](CCC(N)=O)C1=O` (stereo partly drawn) [Compound I-124, phenethyl (3R,6S)-6-(3-amino-3-oxopropyl)-3-isobutyl-4,7-dioxo-8-((S)-1-oxo-1-((3-phenylpropyl)amino)hexan-2-yl)hexahydropyrazino[2,1-c][1,2,4]oxadiazine-1(6H)-carboxylate], the inhibition at 10 µM came out at 57.1%.
`CC(C)C[C@H]1ON(C(=O)OCc2cccc3ccccc23)C2CN(C3CCN(C)CC3)C(=O)[C@H](CC(C)C)N2C1=O` (stereo partly drawn) [Compound I-137, naphthalen-1-ylmethyl (3R,6S)-3,6-diisobutyl-8-(1-methylpiperidin-4-yl)-4,7-dioxohexahydropyrazino[2,1-c][1,2,4]oxadiazine-1(6H)-carboxylate]: the inhibition at 10 µM amounted to 81.8%.
With `CCCCCOC(=O)N1O[C@H](CC(C)C)C(=O)N2C1CN([C@@H](Cc1ccc(O)cc1)C(=O)NCCCC(C)C)C(=O)[C@@H]2Cc1ccc(O)cc1` (stereo partly drawn) [Compound I-100, pentyl (3R,6S)-6-(4-hydroxybenzyl)-8-((S)-3-(4-hydroxyphenyl)-1-((4-methylpentyl)amino)-1-oxopropan-2-yl)-3-isobutyl-4,7-dioxohexahydropyrazino [2,1-c][1,2,4]oxadiazine-1(6H)-carboxylate], the inhibition at 10 µM came out at 63.8%.
As to `CC(C)CCNC(=O)[C@H](Cc1ccc(O)cc1)N1CC2N(C(=O)OCCc3ccc(O)cc3)O[C@H](CC(C)C)C(=O)N2[C@@H](Cc2ccc(O)cc2)C1=O` (stereo partly drawn) [Compound I-95, 4-hydroxyphenethyl (3R,6S)-6-(4-hydroxybenzyl)-8-((S)-3-(4-hydroxyphenyl)-1-(isopentylamino)-1-oxopropan-2-yl)-3-isobutyl-4,7-dioxohexahydropyrazino[2,1-c][1,2,4]oxadiazine-1(6H)-carboxylate], the inhibition at 10 µM amounted to 60.1%.
Take `CCCC[C@@H](C(=O)NCCCC(C)C)N1CC2N(C(=O)OCCc3ccc(O)cc3)O[C@H](Cc3ccccc3)C(=O)N2[C@@H](C)C1=O` (stereo partly drawn) [Compound I-122, 4-hydroxyphenethyl (3R,6S)-3-benzyl-6-methyl-8-((S)-1-((4-methylpentyl)amino)-1-oxohexan-2-yl)-4,7-dioxohexahydropyrazino [2,1-c][1,2,4]oxadiazine-1(6H)-carboxylate]: the inhibition at 10 µM came to 79.9%.
For the compound `CC(C)[C@H]1C(=O)N(CCc2cccc3ccccc23)CC2N(C(=O)OCc3ccccc3)O[C@H](Cc3ccc(O)cc3)C(=O)N21` (stereo partly drawn) [Compound I-44, (3R,6S)-benzyl 3-(4-hydroxybenzyl)-6-isopropyl-8-(2-(naphthalen-1-yl)ethyl)-4,7-dioxohexahydropyrazino[2,1-c][1,2,4]oxadiazine-1(6H)-carboxylate], the inhibition at 10 µM was 63.1%.
Same read-out and setting: then `NC(=O)CC[C@H]1C(=O)N([C@@H](Cc2ccccc2)C(=O)NCCCc2ccccc2)CC2N(C(=O)OCCc3ccc(O)cc3)O[C@H](Cc3ccccc3)C(=O)N21` (stereo partly drawn) [Compound I-126, 4-hydroxyphenethyl (3R,6S)-6-(3-amino-3-oxopropyl)-3-benzyl-4,7-dioxo-8-((S)-1-oxo-3-phenyl-1-((3-phenylpropyl)amino)propan-2-yl)hexahydropyrazino [2,1-c][1,2,4]oxadiazine-1(6H)-carboxylate], with 67.2%; and `CC[C@H](C)OC(=O)N1O[C@H](Cc2ccccc2)C(=O)N2C1CN(CCc1cccc3ccccc13)C(=O)[C@@H]2CCCCN` (stereo partly drawn) [Compound I-33, (3R,6S)-(S)-sec-butyl 6-(4-aminobutyl)-3-benzyl-8-(2-(naphthalen-1-yl)ethyl)-4,7-dioxohexahydropyrazino[2,1-c][1,2,4]oxadiazine-1(6H)-carboxylate], with 59.6%.
Consider `CC[C@H](C)CN1CC2N(C(=O)OCC3CCCCC3)O[C@H](CC(C)C)C(=O)N2[C@@H](CCCCN)C1=O` (stereo partly drawn) [Compound I-31, (3R,6S)-cyclohexylmethyl 6-(4-aminobutyl)-3-isobutyl-8-((S)-2-methylbutyl)-4,7-dioxohexahydropyrazino[2,1-c][1,2,4]oxadiazine-1(6H)-carboxylate], for which the inhibition at 10 µM was found to be 67.1%.
The same measure, in the same setting: then `CCCC[C@@H](C(=O)NCCCC(C)C)N1CC2N(C(=O)OCCc3ccc(O)cc3)O[C@H](CC(C)C)C(=O)N2[C@@H](Cc2ccc(O)cc2)C1=O` (stereo partly drawn) [Compound I-101, 4-hydroxyphenethyl (3R,6S)-6-(4-hydroxybenzyl)-3-isobutyl-8-((S)-1-((4-methylpentyl)amino)-1-oxohexan-2-yl)-4,7-dioxohexahydropyrazino[2,1-c][1,2,4]oxadiazine-1(6H)-carboxylate], with 54.4%.
Still for that read-out and setting: then `O=C1[C@H](CO)N2C(=O)[C@@H](Cc3ccccc3)ON(C(=O)OCC3CCCCC3)C2CN1CCc1ccc(O)cc1` (stereo partly drawn) [Compound I-32, (3R,6S)-cyclohexylmethyl 3-benzyl-6-(hydroxymethyl)-8-(4-hydroxyphenethyl)-4,7-dioxohexahydropyrazino[2,1-c][1,2,4]oxadiazine-1(6H)-carboxylate], with 59.8%; and `CCCCOC(=O)N1O[C@H](CCC(N)=O)C(=O)N2C1CN(CCO)C(=O)[C@@H]2C` (stereo partly drawn) [Compound I-50, (3R,6S)-butyl 3-(3-amino-3-oxopropyl)-8-(2-hydroxyethyl)-6-methyl-4,7-dioxohexahydropyrazino[2,1-c][1,2,4]oxadiazine-1(6H)-carboxylate], with 64.6%.
With `CC(C)CCNC(=O)[C@H](Cc1ccc(O)cc1)N1CC2N(C(=O)OCCC(C)C)O[C@H](CC(C)C)C(=O)N2[C@@H](Cc2ccc(O)cc2)C1=O` (stereo partly drawn) [Compound I-94, isopentyl (3R,6S)-6-(4-hydroxybenzyl)-8-((S)-3-(4-hydroxyphenyl)-1-(isopentylamino)-1-oxopropan-2-yl)-3-isobutyl-4,7-dioxohexahydropyrazino[2,1-c][1,2,4]oxadiazine-1(6H)-carboxylate], the inhibition at 10 µM was 57.8%.

Source of the values: patent US20230374034A1, “NOVEL BICYCLIC COMPOUNDS” (PRISM BIOLAB CO., LTD., priority 2020, published 2023).
